For assay [1], the target named is Human MET (residues 956-1390) (Homo sapiens (Human), UniProt P08581). The experiment in a line: Human Met kinase assay, HTRF KinEase (Example D-2). Type of assay: biochemical. The note with it: read-out: c-Met IC50. The procedure, abridged: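 MET kinase domain (956-1390), 0.1 ng/well, in buffer with 5 mM MgCl2, 1 mM DTT and 1 mM MnCl2, phosphorylated a biotinylated peptide at ATP Km for 40 min at RT; 10 concentrations, 3% DMSO final. EDTA-stopped HTRF read after 60 min; IC50 from a 4-parameter logistic fit.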
Chain of Human MET (residues 956-1390) (P08581 956-1390): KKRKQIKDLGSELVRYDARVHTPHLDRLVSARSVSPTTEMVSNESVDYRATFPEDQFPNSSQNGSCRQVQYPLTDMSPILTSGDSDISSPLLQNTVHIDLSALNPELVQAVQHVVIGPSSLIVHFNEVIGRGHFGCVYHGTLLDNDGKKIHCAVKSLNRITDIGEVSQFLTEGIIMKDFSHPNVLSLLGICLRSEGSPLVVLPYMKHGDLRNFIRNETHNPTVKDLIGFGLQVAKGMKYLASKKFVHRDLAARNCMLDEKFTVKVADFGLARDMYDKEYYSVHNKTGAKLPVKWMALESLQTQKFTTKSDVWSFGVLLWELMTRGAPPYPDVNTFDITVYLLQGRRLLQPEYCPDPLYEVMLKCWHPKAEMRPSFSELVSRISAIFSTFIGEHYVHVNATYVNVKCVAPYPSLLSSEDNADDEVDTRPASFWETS
For orientation: In TR-FRET formats the signal depends on donor and acceptor labels being close together.

In assay [2] the target is Human MER (residues 528-999) (Homo sapiens (Human), UniProt Q12866). Briefly: Human Mer kinase assay, HTRF KinEase (Example C-2). Type of assay: biochemical. The gist of the method:
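Recombinant MER 528-999 (1 ng/well) in buffer with 5 mM MgCl2 and 1 mM DTT was reacted with biotinylated peptide and ATP at Km (40 μM) for 60 min at room temperature. EDTA stop with SA-XL665 and Eu3+ TK antibody, then 665/620 nm HTRF read; IC50 from 4-parameter fit.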

Assay [3] concerns the target KDR (phospho-KDR, VEGF165-stimulated HUVEC cells) (Homo sapiens (Human), UniProt P35968). The experiment in a line: KDR autophosphorylation ELISA in HUVEC cells (Example G). The note with it: cellular activity; KDR autophosphorylation ELISA in HUVEC cells. Type of assay: cell-based. The gist of the method: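 HUVEC cells, serum-starved 24 h, were treated 1 h with an 8-point compound dilution (0.3% DMSO) and then stimulated with 100 ng/mL VEGF165 for 5 min. Phospho-KDR in lysates was quantified by sandwich ELISA against a phospho-KDR standard. IC50 from a 4-parameter logistic fit, normalised between stimulated DMSO and unstimulated controls.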
(In general: ELISA stands for enzyme-linked immunosorbent assay.)

Assay [4] has as its target Met (phospho-Met, HGF-stimulated PC-3 prostate cancer cells) (Homo sapiens (Human), UniProt P08581). The experiment in a line: Met autophosphorylation ELISA in PC-3 cells (Example F). Conditions: cellular activity; Met autophosphorylation ELISA in PC-3 cells; read-out: c-Met IC50. Type of assay: cell-based. The gist of the method:
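Compounds were tested on HGF-stimulated PC-3 cells. After 24 h culture and 3 h serum starvation, cells got compound for 1 h and 100 ng/mL HGF for 10 min, and Met tyrosine phosphorylation was measured by ELISA.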

The target in assay [5] is Human KDR (residues 790-1356) (Homo sapiens (Human), UniProt P35968). The experiment in a line: Human KDR kinase assay, HTRF KinEase (Example B-2). Type of assay: biochemical. The gist of the method:
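Human KDR residues 790-1356 (0.1 ng/well) in buffer with 5 mM MgCl2, 1 mM MnCl2, 1 mM DTT, biotinylated peptide substrate, ATP at Km (4.0 μM), 3% DMSO, 10 compound concentrations; 40 min, room temperature. EDTA stop, streptavidin-XL665/Eu-TK antibody HTRF read 665/620 nm; 4-parameter IC50.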

Assay [6] deals with AXL (phospho-AXL, Gas6-stimulated A-172 glioblastoma cells) (Homo sapiens (Human), UniProt P30530). The experiment in a line: AXL autophosphorylation ELISA in A-172 cells (Example E). Format: cell-based. The note with it: cellular activity; AXL autophosphorylation ELISA in A-172 cells; read-out: Axl IC50. The procedure:
A-172 cells were incubated at 37° C., 5% CO2 for 24 h and then starved for 24 h in serum-free medium. Test compounds were serially diluted to produce an 8-point dose curve in fresh serum-free medium to a final concentration of 0.3% DMSO (vehicle) and added to the cells and incubated for 1 h. […] Lysates were collected and 100 μL/well added into the human phospho-AXL DuoSet IC ELISA (R&D Systems #DYC2228-2). […] Positive control wells (100% activity) contained Gas6-stimulated, DMSO-treated cell lysates. Negative control wells (0% activity) contained Gas6-stimulated, reference inhibitor-treated cell lysates. IC50 values were calculated by nonlinear regression analysis using a 4-parameter logistic curve fit in ActivityBase XE (IDBS).

The target in assay [7] is Mer (phospho-Mer, MERTK-transfected 293A cells) (Homo sapiens (Human), UniProt Q12866). Briefly: Mer autophosphorylation ELISA in transient transfected 293A cells (Example H). Format: cell-based. The note with it: cellular activity; Mer autophosphorylation ELISA in transient transfected 293A cells. The procedure, abridged:
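293A cells transiently transfected with human MERTK were treated 1 h in serum-free medium with an 8-point compound dilution (0.3% DMSO final). Lysates were assayed by phospho-Mer sandwich ELISA against a phospho-Mer standard; IC50 came from a 4-parameter logistic fit, normalised to DMSO (100%) and reference-inhibitor (0%) controls.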

Read-outs that look alike come from different tables or passages of the source.

The text below walks through data of US12371428B2 (Exelixis, Inc., priority 2019, dated 2025).

Chain of AXL (phospho-AXL, Gas6-stimulated A-172 glioblastoma cells) (P30530 26-894): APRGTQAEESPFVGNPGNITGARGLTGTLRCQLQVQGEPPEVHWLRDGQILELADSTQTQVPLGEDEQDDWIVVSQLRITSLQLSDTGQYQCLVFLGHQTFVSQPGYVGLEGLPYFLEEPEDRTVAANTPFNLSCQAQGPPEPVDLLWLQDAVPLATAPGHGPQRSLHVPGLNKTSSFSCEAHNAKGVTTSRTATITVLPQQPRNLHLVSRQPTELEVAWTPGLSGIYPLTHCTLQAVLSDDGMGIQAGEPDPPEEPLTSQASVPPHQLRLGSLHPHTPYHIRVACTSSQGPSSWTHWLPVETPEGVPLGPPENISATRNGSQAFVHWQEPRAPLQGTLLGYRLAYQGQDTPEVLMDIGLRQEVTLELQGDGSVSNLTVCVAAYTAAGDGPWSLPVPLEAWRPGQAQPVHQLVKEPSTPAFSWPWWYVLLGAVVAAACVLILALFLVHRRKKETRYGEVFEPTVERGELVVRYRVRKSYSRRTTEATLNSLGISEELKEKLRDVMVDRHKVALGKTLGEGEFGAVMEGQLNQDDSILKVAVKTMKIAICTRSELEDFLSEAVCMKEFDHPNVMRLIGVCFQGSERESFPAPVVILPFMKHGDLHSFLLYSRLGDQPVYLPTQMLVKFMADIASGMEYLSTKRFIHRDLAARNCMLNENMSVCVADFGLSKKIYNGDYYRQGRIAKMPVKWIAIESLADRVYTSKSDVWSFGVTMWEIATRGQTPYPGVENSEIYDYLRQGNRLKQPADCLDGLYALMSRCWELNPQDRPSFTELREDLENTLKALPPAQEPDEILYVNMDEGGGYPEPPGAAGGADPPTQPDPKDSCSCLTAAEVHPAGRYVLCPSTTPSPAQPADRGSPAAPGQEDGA
Chain of Human KDR (residues 790-1356) (P35968 790-1356): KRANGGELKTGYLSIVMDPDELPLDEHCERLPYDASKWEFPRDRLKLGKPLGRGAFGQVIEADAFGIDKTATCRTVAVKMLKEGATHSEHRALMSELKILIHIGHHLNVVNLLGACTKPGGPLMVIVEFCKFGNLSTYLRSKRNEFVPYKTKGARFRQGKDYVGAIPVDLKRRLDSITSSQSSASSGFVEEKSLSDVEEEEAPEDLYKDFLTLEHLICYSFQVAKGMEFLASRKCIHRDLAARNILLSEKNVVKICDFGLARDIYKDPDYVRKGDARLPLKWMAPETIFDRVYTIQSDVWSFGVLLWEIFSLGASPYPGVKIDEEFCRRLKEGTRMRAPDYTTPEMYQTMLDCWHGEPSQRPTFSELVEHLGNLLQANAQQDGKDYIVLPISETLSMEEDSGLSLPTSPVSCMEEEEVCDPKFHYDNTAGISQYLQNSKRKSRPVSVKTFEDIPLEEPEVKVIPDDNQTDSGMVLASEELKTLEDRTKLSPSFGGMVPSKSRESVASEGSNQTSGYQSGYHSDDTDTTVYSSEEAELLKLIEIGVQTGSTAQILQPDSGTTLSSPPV
Chain of KDR (phospho-KDR, VEGF165-stimulated HUVEC cells) (P35968 20-1356): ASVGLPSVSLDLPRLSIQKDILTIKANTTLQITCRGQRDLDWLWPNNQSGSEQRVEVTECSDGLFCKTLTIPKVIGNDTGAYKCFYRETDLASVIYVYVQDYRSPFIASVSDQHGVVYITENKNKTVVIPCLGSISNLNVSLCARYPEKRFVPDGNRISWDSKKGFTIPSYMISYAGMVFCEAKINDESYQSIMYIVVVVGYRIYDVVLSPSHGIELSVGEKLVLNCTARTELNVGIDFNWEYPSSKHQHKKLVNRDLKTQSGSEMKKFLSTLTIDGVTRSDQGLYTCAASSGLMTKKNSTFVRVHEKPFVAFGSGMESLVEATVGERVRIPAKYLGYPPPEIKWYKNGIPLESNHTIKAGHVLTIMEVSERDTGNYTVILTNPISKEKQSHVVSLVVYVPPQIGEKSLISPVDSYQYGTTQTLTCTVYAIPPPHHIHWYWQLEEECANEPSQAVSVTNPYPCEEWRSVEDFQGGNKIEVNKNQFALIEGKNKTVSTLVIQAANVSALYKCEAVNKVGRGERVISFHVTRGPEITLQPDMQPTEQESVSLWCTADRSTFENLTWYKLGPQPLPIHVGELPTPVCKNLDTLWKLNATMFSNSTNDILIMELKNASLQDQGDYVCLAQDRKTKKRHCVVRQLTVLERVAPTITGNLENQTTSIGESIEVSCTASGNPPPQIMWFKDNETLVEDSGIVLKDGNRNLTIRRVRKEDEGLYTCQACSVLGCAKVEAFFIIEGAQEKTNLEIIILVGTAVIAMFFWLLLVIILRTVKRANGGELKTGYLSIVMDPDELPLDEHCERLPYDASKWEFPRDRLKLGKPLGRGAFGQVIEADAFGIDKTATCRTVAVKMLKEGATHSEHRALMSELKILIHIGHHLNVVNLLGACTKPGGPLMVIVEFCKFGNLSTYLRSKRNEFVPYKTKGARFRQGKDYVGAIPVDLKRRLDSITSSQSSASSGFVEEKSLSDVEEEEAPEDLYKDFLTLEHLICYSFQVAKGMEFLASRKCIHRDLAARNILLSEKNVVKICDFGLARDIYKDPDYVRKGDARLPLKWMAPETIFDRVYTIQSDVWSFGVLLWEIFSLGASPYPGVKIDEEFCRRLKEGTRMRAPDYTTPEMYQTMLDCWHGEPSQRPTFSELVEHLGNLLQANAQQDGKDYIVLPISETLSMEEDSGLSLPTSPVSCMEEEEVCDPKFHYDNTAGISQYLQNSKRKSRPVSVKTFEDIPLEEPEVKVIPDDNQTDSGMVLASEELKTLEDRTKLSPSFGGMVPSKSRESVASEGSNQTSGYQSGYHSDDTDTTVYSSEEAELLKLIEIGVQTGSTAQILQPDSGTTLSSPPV
Chain of Mer (phospho-Mer, MERTK-transfected 293A cells) (Q12866 21-999): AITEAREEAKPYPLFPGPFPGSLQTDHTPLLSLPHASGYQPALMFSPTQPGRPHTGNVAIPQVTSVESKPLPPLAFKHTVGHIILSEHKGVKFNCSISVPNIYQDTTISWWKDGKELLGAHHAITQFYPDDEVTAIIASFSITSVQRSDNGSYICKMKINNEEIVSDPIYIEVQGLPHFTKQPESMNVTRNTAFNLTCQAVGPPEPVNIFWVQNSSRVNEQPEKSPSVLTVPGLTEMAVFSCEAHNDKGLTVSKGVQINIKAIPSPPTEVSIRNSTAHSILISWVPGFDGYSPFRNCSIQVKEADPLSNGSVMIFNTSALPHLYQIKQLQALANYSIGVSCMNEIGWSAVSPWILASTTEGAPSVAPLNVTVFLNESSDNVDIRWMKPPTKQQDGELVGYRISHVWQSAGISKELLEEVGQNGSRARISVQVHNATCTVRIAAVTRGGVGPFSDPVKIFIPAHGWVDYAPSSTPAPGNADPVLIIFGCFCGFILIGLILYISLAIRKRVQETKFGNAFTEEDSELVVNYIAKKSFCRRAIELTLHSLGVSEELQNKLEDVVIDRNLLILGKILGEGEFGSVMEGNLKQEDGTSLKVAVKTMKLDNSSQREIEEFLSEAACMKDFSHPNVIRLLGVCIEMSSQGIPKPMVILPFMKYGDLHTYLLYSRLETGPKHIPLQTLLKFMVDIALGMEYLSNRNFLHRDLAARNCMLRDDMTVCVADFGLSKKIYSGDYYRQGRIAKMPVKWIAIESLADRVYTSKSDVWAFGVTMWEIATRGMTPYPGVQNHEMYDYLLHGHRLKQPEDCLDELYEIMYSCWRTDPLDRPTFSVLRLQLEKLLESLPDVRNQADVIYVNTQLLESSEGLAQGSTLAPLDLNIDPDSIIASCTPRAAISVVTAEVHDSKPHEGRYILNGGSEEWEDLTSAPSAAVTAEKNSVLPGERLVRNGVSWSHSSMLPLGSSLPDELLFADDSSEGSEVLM
Chain of Human MER (residues 528-999) (Q12866 528-999): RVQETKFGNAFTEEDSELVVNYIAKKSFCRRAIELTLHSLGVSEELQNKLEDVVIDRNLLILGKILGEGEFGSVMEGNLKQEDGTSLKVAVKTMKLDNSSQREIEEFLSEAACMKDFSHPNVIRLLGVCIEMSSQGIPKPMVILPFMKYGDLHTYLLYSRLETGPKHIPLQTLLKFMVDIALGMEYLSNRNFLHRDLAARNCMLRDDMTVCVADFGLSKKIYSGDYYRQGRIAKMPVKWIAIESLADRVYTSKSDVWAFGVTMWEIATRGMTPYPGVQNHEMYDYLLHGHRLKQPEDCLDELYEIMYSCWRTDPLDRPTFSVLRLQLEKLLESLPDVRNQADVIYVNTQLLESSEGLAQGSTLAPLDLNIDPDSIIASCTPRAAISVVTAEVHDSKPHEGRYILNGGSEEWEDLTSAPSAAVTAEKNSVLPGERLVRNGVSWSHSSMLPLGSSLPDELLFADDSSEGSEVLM

By IC50 is commonly meant the concentration that gives 50% inhibition. On to `Cc1ncc(C(=O)Nc2ccc(Oc3ccnc4cc(F)cnc34)c(F)c2)c(O)c1-c1ccc(F)cc1` [Compound 160, N-[3-Fluoro-4-[(7-fluoro-1,5-naphthyridin-4-yl)oxy]phenyl]-5-(4-fluorophenyl)-4-hydroxy-6-methylpyridine-3-carboxamide], for which the 50% inhibitory concentration (IC50) in assay [1] (protocol of Example D-2 (other compounds)), in assay [2] (protocol of Example C-2 (other compounds)), in assay [3], in assay [4] and in assay [5] (protocol of Example B-2 (other compounds)) was under 100 nM each time.

For the compound `COc1cc2nccc(Oc3ccc(NC(=O)c4c(C)nc(C)c(-c5ccc(F)cc5F)c4O)cc3F)c2nc1OC` [Compound 209, 5-(2,4-Difluorophenyl)-N-[4-[(6,7-dimethoxy-1,5-naphthyridin-4-yl)oxy]-3-fluorophenyl]-4-hydroxy-2,6-dimethylpyridine-3-carboxamide], the IC50 in assay [6], in assay [4] and in assay [7] was under 100 nM each time.

`COc1cnc2c(Oc3ccc(NC(=O)c4c(C)nc(C)c(-c5ccc(F)cc5F)c4O)cc3F)ccnc2c1` [Compound 210, 5-(2,4-Difluorophenyl)-N-[3-fluoro-4-[(7-methoxy-1,5-naphthyridin-4-yl)oxy]phenyl]-4-hydroxy-2,6-dimethylpyridine-3-carboxamide]: the IC50 in assay [6], in assay [4] and in assay [7] was under 100 nM each time.

On to `COCc1nc(C)c(-c2ccc(F)cc2F)c(O)c1C(=O)Nc1ccc(Oc2ccnc3cc(OC)cnc23)c(F)c1` [Compound 211, 5-(2,4-Difluorophenyl)-N-[3-fluoro-4-[(7-methoxy-1,5-naphthyridin-4-yl)oxy]phenyl]-4-hydroxy-2-(methoxymethyl)-6-methylpyridine-3-carboxamide], for which the IC50 in assay [6], in assay [4] and in assay [7] was under 100 nM in each case.

On to `COCc1nc(C)c(-c2ccc(F)cc2F)c(O)c1C(=O)Nc1ccc(Oc2ccnc3cc(OC)c(OC)nc23)c(F)c1` [Compound 212, 5-(2,4-Difluorophenyl)-N-[4-[(6,7-dimethoxy-1,5-naphthyridin-4-yl)oxy]-3-fluorophenyl]-4-hydroxy-2-(methoxymethyl)-6-methylpyridine-3-carboxamide], for which the IC50 in assay [6], in assay [4] and in assay [7] was under 100 nM throughout.

With `CCOCc1nc(C)c(-c2ccc(F)cc2)c(O)c1C(=O)Nc1ccc(Oc2ccnc3cc(OC)c(OC)nc23)c(F)c1` [Compound 213, N-[4-[(6,7-Dimethoxy-1,5-naphthyridin-4-yl)oxy]-3-fluorophenyl]-2-(ethoxymethyl)-5-(4-fluorophenyl)-4-hydroxy-6-methylpyridine-3-carboxamide], the IC50 in assay [6], in assay [4] and in assay [7] was under 100 nM throughout.

With `CCOCc1nc(C)c(-c2ccc(F)cc2)c(O)c1C(=O)Nc1ccc(Oc2ccnc3cc(OC)cnc23)c(F)c1` [Compound 214, 2-(Ethoxymethyl)-N-[3-fluoro-4-[(7-methoxy-1,5-naphthyridin-4-yl)oxy]phenyl]-5-(4-fluorophenyl)-4-hydroxy-6-methylpyridine-3-carboxamide], the IC50 in assay [6], in assay [4] and in assay [7] was under 100 nM each time.

Turning to `COCc1c(C(=O)Nc2ccc(Oc3ccnc4cc(OC)c(OC)nc34)c(F)c2)c(=O)c(-c2ccc(F)cc2)c(C)n1C` [Compound 336, N-[4-[(6,7-dimethoxy-1,5-naphthyridin-4-yl)oxy]-3-fluorophenyl]-5-(4-fluorophenyl)-2-(methoxymethyl)-1,6-dimethyl-4-oxopyridine-3-carboxamide], the IC50 in assay [6], in assay [4] and in assay [7] was under 100 nM throughout.

Consider `COc1cc2nccc(Oc3ccc(NC(=O)c4cc(F)c(C)n(-c5ccc(F)cc5)c4=O)cc3F)c2nc1OC` [Compound 337, N-[4-[(6,7-dimethoxy-1,5-naphthyridin-4-yl)oxy]-3-fluorophenyl]-5-fluoro-1-(4-fluorophenyl)-6-methyl-2-oxopyridine-3-carboxamide], for which the IC50 in assay [6], in assay [4] and in assay [7] was under 100 nM throughout.

Consider `COc1cc2nccc(Oc3ccc(NC(=O)c4cc(F)c(C)n(-c5ccc(F)cc5)c4=O)cc3)c2nc1OC` [Compound 338, N-[4-[(6,7-dimethoxy-1,5-naphthyridin-4-yl)oxy]phenyl]-5-fluoro-1-(4-fluorophenyl)-6-methyl-2-oxopyridine-3-carboxamide], for which the IC50 in assay [6], in assay [4] and in assay [7] was under 100 nM each time.

As to `CNC(=O)c1cc2c(Oc3ccc(NC(=O)c4cnc(C)c(-c5ccc(F)cc5)c4O)cc3)ccnc2cn1` [Compound 398, 4-[4-[[5-(4-fluorophenyl)-4-hydroxy-6-methylpyridine-3-carbonyl]amino]phenoxy]-N-methyl-1,7-naphthyridine-6-carboxamide], the IC50 in assay [6], in assay [4] and in assay [7] was under 100 nM in each case.

For the compound `COCc1nc(C)cc(O)c1C(=O)Nc1ccc(Oc2ccnc3cc(OC)c(OC)nc23)c(F)c1` [Compound 492, N-[4-[(6,7-dimethoxy-1,5-naphthyridin-4-yl)oxy]-3-fluorophenyl]-4-hydroxy-2-(methoxymethyl)-6-methylpyridine-3-carboxamide], the results for the IC50 in assay [6], in assay [4] and in assay [7] were 100 to 300 nM, under 100 nM and under 100 nM, respectively.

With `Cc1ccc2nccc(Oc3ccc(NC(=O)c4c(C)nc(C)c(-c5ccc(F)cc5C)c4O)cc3)c2n1` [Compound 507, 5-(4-fluoro-2-methylphenyl)-4-hydroxy-2,6-dimethyl-N-[4-[(6-methyl-1,5-naphthyridin-4-yl)oxy]phenyl]pyridine-3-carboxamide], the IC50 in assay [1] (protocol of Example D-2) is under 100 nM; in assay [2] (protocol of Example C-2), 100 to 300 nM; in assay [3] it was under 100 nM; in assay [5] (protocol of Example B-2), over 300 nM; in assay [7], 100 to 300 nM.

For `Cc1cc(F)ccc1-c1c(C)ncc(C(=O)Nc2ccc(Oc3ccnc4cc(C(C)C)cnc34)cc2)c1O` [Compound 597, 5-(4-Fluoro-2-methylphenyl)-4-hydroxy-6-methyl-N-[4-[(7-propan-2-yl-1,5-naphthyridin-4-yl)oxy]phenyl]pyridine-3-carboxamide], the concentration for half-maximal inhibition (IC50) is 100 to 300 nM in assay [1] (protocol of Example D-2), over 300 nM in assay [2] (protocol of Example C-2), 100 to 300 nM in assay [3] and over 300 nM in assay [5] (protocol of Example B-2).

With `COc1cnc2c(Oc3ccc(NC(=O)c4cn(CCO)c(C)c(-c5ccc(F)cc5)c4=O)cc3F)ccnc2c1` [Compound 621, N-[3-Fluoro-4-[(7-methoxy-1,5-naphthyridin-4-yl)oxy]phenyl]-5-(4-fluorophenyl)-1-(2-hydroxyethyl)-6-methyl-4-oxopyridine-3-carboxamide], the IC50 is under 100 nM in assay [1] (protocol of Example D-2); under 100 nM in assay [2] (protocol of Example C-2); 100 to 300 nM in assay [3]; over 300 nM in assay [5] (protocol of Example B-2); 100 to 300 nM in assay [7].
